# In patent publication EP0501713B1, “Optically active aminoketone derivative and method for preparing same” (MITSUI TOATSU CHEMICALS, Inc., priority 1991, dated 1992):
# How the values were obtained:
# Acute toxicity = format: in vivo; details: mouse, in vivo, ip, intraperitoneally administered; mice observed 72 hours later
# Procedure: (§1) ddy Male mice (body weights: 25-30 g) were used. Each test compound was intraperitoneally administered, and 72 hours later, the mice were observed as to whether they were alive or dead.
# (§2) 50% lethal doses LD50 (mg/kg) were calculated.
# [1] = system: skeletal muscle afferent discharge; experiment: Action to skeletal muscle afferent discharge (musculus triceps surae nerve fiber); format: in vivo, Wistar rats; details: i.v., rat, discharge frequency before administration = 100%, tension of 20 g
# Text: The musculus triceps surae was separated from each of Wistar rats (9 to 10 weeks old; Japanese rats) under a mixed anesthetic of urethane and α-chlorarose. There were cut out all the branches of the sciatic nerve except the branch which controls the musculus triceps surae. The medulla spinalis was subjected to laminectomy, and roots of L6 or less were cut out. […] A nerve fiber coming from the musculus triceps surae was only separated from the L5 posterior root. A tension of 20 g was applied to the peripheral end of the musculus triceps surae, and each discharge frequency of the nerve was recorded. Assuming that the discharge frequency before the administration is 100%, the discharge frequency of the nerve was expressed in terms of percentage: (100 -(Discharge frequency at most inhibition)/(Discharge frequency before administration)× 100) [formula]
# The test compounds were intravenously administered at 6 and 12 mg/kg.
# [2] = system: decerebrate rigidity induced by radio frequency lesions of rat brains; experiment: Decerebrate rigidity remission action (method of Ono et al.); format: in vivo, Wistar male rat; details: i.v., tension before administration = 100%
# Text: Pharmacol., 18, 57 (1987)], the rigidity remission action of the optically active aminoketone derivative of the present invention for the decerebrate rigidity induced by radio frequency lesions of rat brains was investigated.
# Each Wistar male rat (body weight: 300-400 g) was anesthetized with ether and then fixed on a stereotaxic apparatus. In accordance with the Pellegrino's stereotaxic brain atlas, the electrodes of a lesion generator (manufactured by Radionics Company) were punctuated to AP: 0, L: ±1.5, V: -3. […] The rigidified rat was fixed in the abdominal position, and the tension of each extension reflex of the extensor of the hind limbs was recorded. Assuming that the tension before the administration was 100%, the rate of rigidity inhibition is expressed in terms of percentage: (100 -(Tension after administration)/(Tension before administration)× 100) [formula]
# The test compounds were intravenously administered at 3 and 6 mg/kg.
# ddy Male mice = experiment: Acute toxicity; format: in vivo; details: intraperitoneally administered; mice observed 72 hours later; 4320 min
# Procedure: as §1, §2
SMILES,LD50 at 72 h (Acute toxicity) [mg/kg],Discharge Frequency (%) ([1]; 6 mg/kg),Discharge Frequency (%) ([1]; 12 mg/kg),Rigidity Inhibition (%) ([2]; 3 mg/kg),Rigidity Inhibition (%) ([2]; 6 mg/kg),LD50 (ddy Male mice) [mg/kg]
"CCC(CN1CCCC1)C(=O)c1cc(-c2ccccc2)no1 (racemic) [racemic form, 3-phenyl-5-[2-(1-pyrrolidinylmethyl)butyryl]isoxazole, reference compound]",445,46,27,56,65,–
"CCC(CN1CCCC1)C(=O)c1cc(-c2ccccc2)no1 (single isomer, unassigned; (-)) [(-) form, (-)-3-phenyl-5-[2-(1-pyrrolidinylmethyl)butyryl]isoxazole]",–,83,–,33,53,760
"CCC(CN1CCCC1)C(=O)c1cc(-c2ccccc2)no1 (single isomer, unassigned; (+)) [(+) form, (+)-3-phenyl-5-[2-(1-pyrrolidinylmethyl)butyryl]isoxazole]",386,28,14,59,78,–
